One data set has as its system U1 cells. Put plainly: Cell viability of TNFα-induced U1 cells. The class given is cell-based. Conditions: for cellular toxicity: high test dose of 100 µM; for toxicity: higher dose testing (300 µM). The protocol: (§1) Thiolester compounds were also tested for their ability to inhibit HIV-1 replication in TNFα-induced U1 and ACH-2 cells. U1 cells were induced with 5 ng/ml of TNFα in the presence of various concentrations of the thiolesters 44, 45 or 47. Forty-eight hours later the cultures were characterized for virus p24 antigen production and cell viability. […] Compound 44 killed 60% of the cells at 200 µM. […] Precursor processing evaluation performed as described by Turpin (1997) Antiviral Chem. Chemother. 8:60-69. Thus, thiolester PATEs initiate intracellular disulfide cross-linking of precursor polyproteins during late phase virus assembly and mediate a direct virucidal effect via an attack on the mature NCp7 retroviral zinc fingers in the cell-free virus.

Data set [1] deals with fusion of the HL2/3 and MAGI-CCR-5 cells. Put plainly: Fusion assay, HL2/3 and MAGI-CCR-5 co-culture with beta-galactosidase reporter. The class given is cell-based. To be noted: for IC50: Table 7, read-out: Fusion I50. The protocol:
Determination of the effect of the test compounds on viral fusion were carried out as follows. Briefly, HL2/3 cells stably expressing HIV-1 Tat and cell surface gp120 and MAGI-CCR-5 cells stably expressing CD4 and CCR5 on their cell surface, containing a β-galactosidase reporter gene under the control of the HIV-1 LTR were pretreated with test compound for 1 h at 37°C. After incubation, the cells were mixed in a 4 to 1 ratio (2 x 10^5 MAGI-CCR-5 to 8 x 10^5 HL2/3 cells) and co-cultured for 18 h at 37°C; cultures were fixed and stained with X-gal solution for β-galactosidase activity. Blue cells represented the Tat transactivation of the HIV-1 LTR upon fusion of the HL2/3 and MAGI-CCR-5 cells via the CD4/CCR5 co-receptor gp 120 interaction.

The subject of the next data set is HIV-1RF. Put plainly: XTT cytoprotection assay (antiviral activity). The format is cell-based. The text has this:
One exemplary means to determine antiviral activity is with CEM-SS cells and virus (e.g., HIV-1RF) (MOI = 0.01) using the XTT (2,3-bis[2-methoxy- 4-nitro-5-sulfophenyl] -5- [(phenylamino)carbonyl]-2H-tetrazolium hydroxide) cytoprotection assay, as described by Rice (1993) PNAS 90:9721-9724, and Rice (1997) Antimicrob. Agents Chemother. 41:419-426. Briefly, cells are infected with HIV-1RF (or other virus to be tested) in the presence of various dilutions of test compounds (thiolesters and controls). The cultures are incubated for seven days. During this time control cultures without protective compounds (i.e., compounds with anti-viral activity) replicate virus, induce syncytia, and result in about 90% cell death. The cell death is measured by XTT dye reduction. XTT is a soluble tetrazolimn dye that measures mitochondrial energy output, similar to MTT. Positive controls using dextran sulfate (an attachment inhibitor) or 3'-Azido -2'-3'-dideoxythymidine, AZT (a reverse transcriptase inhibitor) are added to each assay. Individual assays are done in duplicate using a sister plate method.
Effective antiviral concentrations providing 50% cytoprotection (EC50), and cellular growth inhibitory concentrations causing 50% cytotoxicity (IC50) are calculated.

Data set [2] concerns HIV-1 replication in TNFα-induced U1. The data set can be described thus: Inhibition of p24 release from TNFα-induced U1 cells. The format is cell-based. As to the method:
as §1

Data set [3] addresses T1, recombinant HIV-1 reverse transcriptase (Human immunodeficiency virus type 1 group M subtype B, UniProt P03366).
T1 construct: using recombinant HIV-1 reverse transcriptase; S. Hughes, ABL Basic Research NCI-FCRDC, Frederick MD (supplied, not a catalogue product)
The data set can be described thus: Reverse transcriptase assay with rAdT and rCdG template/primer. The format is biochemical. Conditions: for IC50: Table 7, high dose test of 100 µM. As to the method:
(§2) The 5-bromovaleroyl thioester, compound 44, and two 5-pyridiniovaleroyl thioesters, compounds 45 and 47, were analyzed in mechanistic and target-based assays. […] Assays for activity against HIV-1 reverse transcriptase rAdT (template/primer) and rCdG (template/primer) using recombinant HIV-1 reverse transcriptase (S. Hughes, ABL Basic Research NCI-FCRDC, Frederick MD) were performed as described by Rice (1997) supra. Substrate cleavage of recombinant HIV-1 protease in the presence of test compounds using an HPLC-based methodology with the artificial substrate Ala-Ser-Glu-Asn-Try- Pro-Ile-Val-amide (Multiple Peptide Systems, San Diego CA) was performed as described by Rice (1997) supra. The ability of recombinant HIV-1 integrase (S. Hughes, ABL Basic Research NCI-FCRDC, Frederick MD) to carry out 3' processing and strand transfer activities in the presence of test compounds was performed as described by Buckheit (1994) AIDS Res. Hum. Retroviruses 10:1497-1506, and Turpin (1998) Antimicrob. Agents Chemother. 42: 487-494.

The target of data set [4] is T2, recombinant HIV-1 integrase (Human immunodeficiency virus type 1 group M subtype B, UniProt P03366).
T2 construct: The ability of recombinant HIV-1 integrase; S. Hughes, ABL Basic Research NCI-FCRDC, Frederick MD (supplied, not a catalogue product)
Put plainly: Integrase 3' processing and strand transfer assay. The format is biochemical. To be noted: for IC50: Table 7, high dose test of 100 µM, read-out: Integrase I50. The protocol: as §2

Setting [5] is: Human immunodeficiency virus 1, Table 5, XTT cytoprotection assay, read-out: Antiviral Activity EC50.
[6] abbreviates: Human immunodeficiency virus 1, Table 6, XTT cytoprotection assay, read-out: Antiviral Activity EC50%.
Setting [7] is: Human immunodeficiency virus 1, 5 ng/ml TNFα, 48 hours, read-out: inhibition of release of HIV-1 virions (p24) from U1 cells, EC50.
Where [8] appears, read: Human immunodeficiency virus 1, Table 9, read-out: U1 Inhibition of p24 (EC50 µM).
The mark [9] stands for this setting: rAdT template/primer, read-out: Reverse transcriptase rAdT I50.
The mark [10] stands for this setting: rCdG template/primer, read-out: Reverse transcriptase rCdG I50.

The source of these data is patent publication EP1087941B9, “THIOLESTERS AND USES THEREOF” (THE UNITED STATES OF AMERICA, as represented by THE …, priority 1998, dated 1999).

Like-named read-outs stand apart in the source and are kept apart here.

`CC(=O)NS(=O)(=O)c1ccc(NC(=O)c2ccccc2SC(=O)CCCCBr)cc1` [Compound 44, N-[2-(5-bromovaleroylthio)benzoyl]sulfacetamide] returned a cells killed with U1 cells (at 200 µM) of 60%. The cellular toxicity result in the data set with U1 cells is reported as “No cellular toxicity was evident”. The “inhibition of fusion to host cells” value in data set [1] is “did not inhibit”. Moreover, the IC50 in data set [1], in data set [3] (setting [9]), in data set [3] (setting [10]) and in data set [4] was greater than 100 µM each time. Further, the EC50 was 3.8 µM in the data set with HIV-1RF (setting [5]), 38 µM with HIV-1RF (setting [6]), 94 µM in data set [2] (setting [7]) and 94 µM in data set [2] (setting [8]). Besides, the “inhibition of HIV-1 reverse transcriptase enzyme activity” value in data set [3] was “did not inhibit”. Further, the “inhibition of HIV-1 integrase enzyme activity” value in data set [4] is “did not inhibit”.

Take `CC(=O)NS(=O)(=O)c1ccc(NC(=O)c2ccccc2SC(=O)CCCC[n+]2ccccc2)cc1` [Compound 45, N-[2-(5-pyridinio-valeroylthio)benzoyl]sulfacetamide bromide]: in the data set on U1 cells, the cellular toxicity result is given as “No cellular toxicity was evident”. Further, the toxicity entry with U1 cells was “no toxicity”. For the same compound, the “inhibition of fusion to host cells” value in data set [1] is “did not inhibit”. Moreover, the IC50 was 77 µM in data set [1], greater than 100 µM in data set [3] (setting [9]), greater than 100 µM in data set [3] (setting [10]) and greater than 100 µM in data set [4]. In addition, the EC50 was less than 10 µM in the data set on HIV-1RF (Human immunodeficiency virus 1, read-out: EC50 (concentration inhibiting 50% virus replication)); 6.2 µM with HIV-1RF (setting [5]); 6.2 µM in the data set with HIV-1RF (setting [6]); 42.2 µM in data set [2] (setting [7]); 42.2 µM in data set [2] (setting [8]). Besides, the “inhibition of HIV-1 reverse transcriptase enzyme activity” value in data set [3] is given as “did not inhibit”. Further, the “inhibition of HIV-1 integrase enzyme activity” value in data set [4] was “did not inhibit”.

`O=C(CCCC[n+]1ccccc1)Sc1ccccc1C(=O)Nc1ccc(S(=O)(=O)c2ccc([N+](=O)[O-])cc2)cc1` [Compound 47]: in the data set with U1 cells, the cellular toxicity entry is reported as “No cellular toxicity was evident” and the toxicity result was “no toxicity”. Moreover, in data set [1], the “inhibition of fusion to host cells” value is listed as “did not inhibit” and the IC50 was 99 µM. Also, the EC50 in the data set on HIV-1RF (Human immunodeficiency virus 1, read-out: Antiviral Activity EC50%) was found to be 5.5 µM. The EC50 in data set [2] (Human immunodeficiency virus 1, 48 h, read-out: inhibition of release of HIV-1 virions (p24) from U1 cells, EC50) turned out to be 10.7 µM. Further, in data set [2] (Human immunodeficiency virus 1, read-out: U1 Inhibition of p24 (EC50 µM)), the EC50 was found to be 10.7 µM. Besides, in data set [3], the “inhibition of HIV-1 reverse transcriptase enzyme activity” value is listed as “did not inhibit”. In data set [4], the “inhibition of HIV-1 integrase enzyme activity” value was “did not inhibit”.
